{"source": "patent US20100184674A1", "about": "“PROADRENOMEDULLIN ALONE OR IN COMBINATION WITH BIG GASTRIN I AS A THERAPEUTIC AGENT” (priority 2007, published 2010)", "key": {"[1]": {"system": "hepatitis B virus (HBV) ayw strain", "assay": "HBV assay in HepG2-2.2.15 cells (TaqMan PCR of secreted HBV DNA)", "type": "cell-based", "conditions": "10 micrograms per ml; six days; combination 0.95 mole peptide 1 and 1.05 mole peptide 2", "text": "HepG2-2.2.15 is a stable cell line containing the hepatitis B virus (HBV) ayw strain genome (ATCC Cat. No. CRL-11997). Antiviral compounds blocking any late step of viral replication such as transcription, translation, pregenome encapsidation, reverse transcription, particle assembly and release can be identified and characterized using this cell line. In this assay, an active compound will reduce the production of secreted HBV from cells, measured by utilizing real time quantitative PCR (TaqMan) assay to directly and accurately measure HBV DNA copies. […] After 16-24 hours the confluent monolayer of HepG2-2.2.15 cells was washed and the medium was replaced with complete medium containing test peptides—10 micrograms per ml—in duplicate. Lamivudine (3TC) was used as the positive control, while media alone was added to the cells as a negative control (virus control). […] Six days following the initial administration of the peptides, the cell culture supernatants was collected, treated with pronase and DNAse and then used in a real-time quantitative TaqMan PCR assay. The PCR-amplified HBV DNA was detected in real-time by monitoring increases in fluorescence signals that result from the exonucleolytic degradation of a quenched fluorescence probe molecule that hybridizes to the amplified HBV DNA. […] Antiviral activity was calculated from the reduction in HBV DNA levels (% virus control). […]"}, "murine spleen cells": {"system": "murine spleen cells", "assay": "Th1/Th2 cytokine profiling assay (Ovalbumin restimulation)", "type": "cell-based, Balb/c mice", "conditions": "10 micrograms per ml, 72 hours"}, "[2]": {"system": "Primary Human endothelial cells (HUVEC)", "assay": "Endothelial cell migration assay", "type": "cell-based", "conditions": "10 micrograms per ml; 22 hours"}, "HCMV strain AD169": {"system": "HCMV strain AD169", "assay": "HCMV plaque formation assay in MRC-5 cells", "conditions": "for inhibition of HCMV plaque formation as compared to the virus control: 10 micrograms per ml, 7-10 days"}, "HIV-1IIIB": {"system": "HIV-1IIIB", "assay": "HIV-1 antiviral assay in CEM-SS cells (MTS readout)"}, "HUVEC": {"system": "HUVEC", "assay": "Endothelial tube formation assay", "type": "cell-based, human", "conditions": "10 micrograms per ml; 20 hours", "method": "The endothelial tube formation assay is based on the ability of endothelial cells to form three-dimensional capillary-like tubular structures when cultured on a gel of basement membrane extract. […] Pre-labeled HUVEC with Calcein AM were seeded in a 96-well culture plate coated with extracellular metrix (Chemicon international Cat. ECM625) and treated with test peptides—10 micrograms per ml—in full growth medium. Positive control wes vehicle only. The endothelial cells were allowed to form tubes foe 20 hours and were then examined under an inverted fluorescent microscope. Duplicate wells for each treatment were photographed and quantitatevily analyzed for an average tubule length using image analysis software ImageProPlus. Raw data were expressed as average tubule lengths in pixels ±standard deviation. Statistic p values were computed using the Student's t-test."}, "[3]": {"conditions": "combination 0.95 mole peptide 1 and 1.05 mole peptide 2"}}, "note": "Where no end group is shown, it is not given here. [ ]: non-standard residue; d: D form. pGlu = O=C1CC[C@@H](C(=O)O)N1", "data": [{"molecule": "Ala-Arg-Leu-Asp-Val-Ala-Ser-Glu-Phe-Arg-Lys-Lys-Trp-Asn-Lys-Trp-Ala-Leu-Ser-Arg-NH2 (ARLDVASEFRKKWNKWALSR-NH2) [Peptide 1]", "values": [{"measurement": "inhibition of HBV replication as compared to the virus control infection", "setting": "[1]", "value": 10.0, "unit": "%"}, {"measurement": "production of IL-2, induced by", "setting": "murine spleen cells", "value": 44.3, "unit": "%"}, {"measurement": "production of IL-4, induced by", "setting": "murine spleen cells", "value": 43.2, "unit": "%"}, {"measurement": "change of the production of IFN-γ", "setting": "murine spleen cells; [3]", "value": "did not significantly change"}, {"measurement": "change of the production of IL-5", "setting": "murine spleen cells; [3]", "value": "did not significantly change"}, {"measurement": "change of the production of TNF-alpha", "setting": "murine spleen cells; [3]", "value": "did not significantly change"}, {"measurement": "inhibition of the migration of human endothelial cells", "setting": "[2]", "value": "did not inhibit"}, {"measurement": "inhibition of HCMV plaque formation as compared to the virus control", "setting": "HCMV strain AD169", "value": "did not inhibit"}]}, {"molecule": "Cc1cn([C@H]2C[C@H](N=[N+]=[N-])[C@@H](CO)O2)c(=O)[nH]c1=O", "note": "[AZT]", "values": [{"measurement": "antiviral activity of positive control compounds", "setting": "HIV-1IIIB", "value": "expected levels of antiviral activity"}]}, {"molecule": "Nc1nc(O)c2ncn(COC(CO)CO)c2n1", "note": "[Ganciclovir, reference compound]", "values": [{"measurement": "antiviral activity of positive control compound", "setting": "HCMV strain AD169; positive control, MRC-5 cells, HCMV AD169", "value": "expected levels of antiviral activity"}]}, {"molecule": "CC(C)(C)NC(=O)[C@@H]1CN(Cc2cccnc2)CCN1C[C@@H](O)C[C@@H](Cc1ccccc1)C(=O)N[C@H]1c2ccccc2C[C@H]1O", "note": "[indinavir]", "values": [{"measurement": "antiviral activity of positive control compounds", "setting": "HIV-1IIIB", "value": "expected levels of antiviral activity"}]}, {"molecule": "Pyr-Leu-Gly-Pro-Gln-Gly-Pro-Pro-His-Leu-Val-Ala-Asp-Pro-Ser-Lys-Lys-Gln-Gly-Pro-Trp-Leu-Glu-Glu-Glu-Glu-Glu-Ala-Tyr-Gly-Trp-Met-Asp-Phe-NH2 ([pGlu]LGPQGPPHLVADPSKKQGPWLEEEEEAYGWMDF-NH2; SMILES CSCC[C@H](NC(=O)[C@H](Cc1c[nH]c2ccccc12)NC(=O)CNC(=O)[C@H](Cc1ccc(O)cc1)NC(=O)[C@H](C)NC(=O)[C@H](CCC(=O)O)NC(=O)[C@H](CCC(=O)O)NC(=O)[C@H](CCC(=O)O)NC(=O)[C@H](CCC(=O)O)NC(=O)[C@H](CCC(=O)O)NC(=O)[C@H](CC(C)C)NC(=O)[C@H](Cc1c[nH]c2ccccc12)NC(=O)[C@@H]1CCCN1C(=O)CNC(=O)[C@H](CCC(N)=O)NC(=O)[C@H](CCCCN)NC(=O)[C@H](CCCCN)NC(=O)[C@H](CO)NC(=O)[C@@H]1CCCN1C(=O)[C@H](CC(=O)O)NC(=O)[C@H](C)NC(=O)[C@@H](NC(=O)[C@H](CC(C)C)NC(=O)[C@H](Cc1c[nH]cn1)NC(=O)[C@@H]1CCCN1C(=O)[C@@H]1CCCN1C(=O)CNC(=O)[C@H](CCC(N)=O)NC(=O)[C@@H]1CCCN1C(=O)CNC(=O)[C@H](CC(C)C)NC(=O)[C@@H]1CCC(=O)N1)C(C)C)C(=O)N[C@@H](CC(=O)O)C(=O)N[C@@H](Cc1ccccc1)C(N)=O) [Peptide 2]", "values": [{"measurement": "inhibition of HBV replication as compared to the virus control infection", "setting": "[1]", "value": 11.3, "unit": "%"}, {"measurement": "production of IL-2, suppressed by", "setting": "murine spleen cells", "value": 100, "unit": "%"}, {"measurement": "production of IL-4, suppressed by", "setting": "murine spleen cells", "value": 100, "unit": "%"}, {"measurement": "production of IL-5, deceased by", "setting": "murine spleen cells", "value": 44.5, "unit": "%"}, {"measurement": "change of the production of IFN-γ", "setting": "murine spleen cells; [3]", "value": "did not significantly change"}, {"measurement": "change of the production of TNF-alpha", "setting": "murine spleen cells; [3]", "value": "did not significantly change"}, {"measurement": "inhibition of the migration of human endothelial cells", "setting": "[2]", "value": 35, "unit": "%"}, {"measurement": "inhibition of the tube formation of human endothelial cells", "setting": "HUVEC", "value": 9, "unit": "%"}, {"measurement": "inhibition of HCMV plaque formation as compared to the virus control", "setting": "HCMV strain AD169", "value": "did not inhibit"}]}]}
